Experimental data as given in PubChem BioAssay AID1919009 (Molecular Pharmacology Branch, DTP, NCI, 2023).

Tested on: K24384-001-R-PDC complex spheroid growth
Assay: Anticancer human tumor K24384-001-R-PDC patient-derived pancreatic adenocarcinoma cell line growth inhibition [AhR]
Details: for IC50: curve of first compound; for viability, T/C: stronger effect = lower value; active = viability on the fitted dose curve at most 10% of control; inactive = the rest
Excerpt: Multicellular complex tumor spheroid response to aryl hydrocarbon receptor antagonists in combination with a variety of drugs and investigational agents in selected tumor cell lines
The current study was undertaken to assess response to aryl hydrocarbon receptor antagonists in combination with standard-of-care drugs and investigational agents in solid tumor complex spheroid models. Complex spheroids include a stromal component modeled by human endothelial cells (HUVEC) and fibroblasts modeled by human mesenchymal stem cells (MSCs). The concentration ranges selected for each drug and investigational agent were based upon clinically achievable concentrations if the clinical Cmax of the agent was known.
Compounds. The drugs and investigational agents: BAY 2416964 (NSC825713), GNF351 (NSC835774), CH-223191 (NSC835775), CPI-455 (NSC825282), aza-TdCyd (NSC777586), decitabine (NSC127716), belinostat (NSC758774), entinostat (NSC756642), pevonedistat (NSC761192), tazemetostat (NSC777109), talazoparib (NSC765396), olaparib (NSC753686), selinexor (NSC780203), nedisertib (M3814, NSC802822), bortezomib (NSC756655), venetoclax (NSC766270), doxorubicin (NSC123127), elimusertib (BAY189344, NSC800525), ceralasertib (AZD6738, NSC777638), TAK-243 (NSC785004), alisertib (NSC759677), etoposide (NSC141540), topotecan (NSC609699), eribulin (NSC707389), gemcitabine (NSC613327), carboplatin (NSC241240), cisplatin (NSC119875), and SN-38 (NSC673596) were obtained from the National Cancer Institute (NCI) Developmental Therapeutics Program Chemical Repository (32). The FDA-approved anticancer drug set is available from the Developmental Therapeutics Program at https://dtp.cancer.gov/organization/dscb/obtaining/available plates.htm. […] The stock solutions were prepared in dimethyl sulfoxide (DMSO, Sigma-Aldrich, St. Louis, MO, cat. D2650), except for the platinum compounds which were prepared in saline (Quality Biological, Gaithersburg, MD, cat. 114-055-101), at 800-fold the tested concentration and stored at -70 degrees C prior to their use. All drugs and investigational agents were tested over a range starting from a high concentration at or near the clinical Cmax and decreasing in half-log increments. If the clinical Cmax for an agent had not been determined, the highest concentration tested was 10 microM (Table 1).
Cell Culture. All cells were maintained in an incubator at 37 degrees C and 5% CO2 with 95% humidity. The PDC lines were cultured according to standard operating procedures established by the NCI PDMR (https://pdmr.cancer.gov). Briefly, all PDCs were thawed and cultured in Matrigel-coated flasks prepared with a working solution of 1X Ham's F-12 nutrient mix, without supplementation (Invitrogen, Waltham, MA, cat. 11765054), 100 U/mL penicillin-streptomycin (Invitrogen, cat. 15140122), and 2.5% Matrigel (Corning Inc., Corning, NY, cat. 354248) for the first three passages. All PDCs were cultured in complete DMEM/F-12 media containing advanced DMEM/F-12 (Invitrogen, cat. 12634028), 4.9% defined fetal bovine serum, heat inactivated (HyClone Laboratories Inc., Logan, UT, cat. SH30070.03HI), 389 ng/mL hydrocortisone (Sigma-Aldrich, cat. H4001), 9.7 ng/mL human EGF recombinant protein (Invitrogen, cat. PHG0313), 23.4 microg/mL adenine (Sigma-Aldrich, cat. A2786), 97.3 U/mL penicillin-streptomycin (Invitrogen, cat. 15140122), 1.9 mM L-glutamine (Invitrogen, cat. 25030081), and 9.7 microM Y-27632 dihydrochloride (Tocris Bioscience, Bristol, United Kingdom, cat. 1254). The PDCs were cultured in complete DMEM/F12 media without 10 microM Y-27632 dihydrochloride for at least two passages prior to the screen. The established cell lines NCI-H1341 and […] were cultured in DMEM/F-12, HEPES (Invitrogen, cat. 11330032), 5% defined fetal bovine serum (HyClone Laboratories Inc., cat. SH30070.03), ITS premix universal culture supplement [insulin (5 microg/mL), transferrin (5 microg/mL), and selenious acid (5 ng/mL)] […]

[1] = second compound 0.1 µM, first compound 0.0316 µM
[2] = second compound 0.1 µM, first compound 0.1 µM
[3] = second compound 0.1 µM, first compound 0.316 µM
[4] = second compound 0.1 µM, first compound 1 µM
[5] = second compound 0.1 µM, first compound 3.16 µM
[6] = second compound 0.1 µM, first compound 10 µM
[7] = second compound 0.316 µM, first compound 0.0316 µM
[8] = second compound 0.316 µM, first compound 0.1 µM
[9] = second compound 0.316 µM, first compound 0.316 µM
[10] = second compound 0.316 µM, first compound 1 µM
[11] = second compound 0.316 µM, first compound 3.16 µM
[12] = second compound 0.316 µM, first compound 10 µM
[13] = second compound 1 µM, first compound 0.0316 µM
[14] = second compound 1 µM, first compound 0.1 µM
[15] = second compound 1 µM, first compound 0.316 µM
[16] = second compound 1 µM, first compound 1 µM
[17] = second compound 1 µM, first compound 3.16 µM
[18] = second compound 1 µM, first compound 10 µM
[19] = second compound 3.16 µM, first compound 0.0316 µM
[20] = second compound 3.16 µM, first compound 0.1 µM
[21] = second compound 3.16 µM, first compound 0.316 µM
[22] = second compound 3.16 µM, first compound 1 µM
[23] = second compound 3.16 µM, first compound 3.16 µM
[24] = second compound 3.16 µM, first compound 10 µM
[25] = second compound 10 µM, first compound 0.0316 µM
[26] = second compound 10 µM, first compound 0.1 µM
[27] = second compound 10 µM, first compound 0.316 µM
[28] = second compound 10 µM, first compound 1 µM
[29] = second compound 10 µM, first compound 3.16 µM
[30] = second compound 10 µM, first compound 10 µM
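Throughout, for viability, T/C: percent of DMSO vehicle-treated spheroid viability set as 100%.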

CC(C)CC(NC(=O)C(Cc1ccccc1)NC(=O)c1cnccn1)B(O)O (stereo not given) + CC(CO)NC(=O)c1cc(-c2ccc(Cl)cc2)nn(-c2cnn(C)c2)c1=O
0.00716 µM: IC50 (second compound 0.316 µM)
0.00558 µM: IC50 (second compound 3.16 µM)
inactive: viability, T/C (second compound 0.1 µM, first compound 0.000949 µM) 118% | viability, T/C (second compound 0.1 µM, first compound 0.003 µM) 110% | viability, T/C (second compound 0.1 µM, first compound 0.00949 µM) 22% | viability, T/C (second compound 0.316 µM, first compound 0.000949 µM) 133% | viability, T/C (second compound 0.316 µM, first compound 0.003 µM) 125% | viability, T/C (second compound 0.316 µM, first compound 0.00949 µM) 25.6% | viability, T/C (second compound 1 µM, first compound 0.000949 µM) 108% | viability, T/C (second compound 1 µM, first compound 0.003 µM) 108% | viability, T/C (second compound 1 µM, first compound 0.00949 µM) 22.2% | viability, T/C (second compound 3.16 µM, first compound 0.000949 µM) 83.6% | viability, T/C (second compound 3.16 µM, first compound 0.003 µM) 99.2% | viability, T/C (second compound 3.16 µM, first compound 0.00949 µM) 14.6% | viability, T/C (second compound 10 µM, first compound 0.000949 µM) 107% | viability, T/C (second compound 10 µM, first compound 0.003 µM) 110% | viability, T/C (second compound 10 µM, first compound 0.00949 µM) 12%
active: viability, T/C (second compound 0.1 µM, first compound 0.03 µM) 0.35% | viability, T/C (second compound 0.1 µM, first compound 0.0949 µM) 0.73% | viability, T/C (second compound 0.1 µM, first compound 0.3 µM) 0.34% | viability, T/C (second compound 0.316 µM, first compound 0.03 µM) 0.68% | viability, T/C (second compound 0.316 µM, first compound 0.0949 µM) 0.25% | viability, T/C (second compound 0.316 µM, first compound 0.3 µM) 0.3% | viability, T/C (second compound 1 µM, first compound 0.03 µM) 0.35% | viability, T/C (second compound 1 µM, first compound 0.0949 µM) 0.3% | viability, T/C (second compound 1 µM, first compound 0.3 µM) 0.35% | viability, T/C (second compound 3.16 µM, first compound 0.03 µM) 0.34% | viability, T/C (second compound 3.16 µM, first compound 0.0949 µM) 0.32% | viability, T/C (second compound 3.16 µM, first compound 0.3 µM) 0.31% | viability, T/C (second compound 10 µM, first compound 0.03 µM) 0.84% | viability, T/C (second compound 10 µM, first compound 0.0949 µM) 0.35% | viability, T/C (second compound 10 µM, first compound 0.3 µM) 0.9%
0.00654 µM: IC50 (second compound 1 µM)
0.00603 µM: IC50 (second compound 10 µM)
0.00657 µM: IC50 (second compound 0.1 µM)

Nc1ccccc1NC(=O)c1ccc(CNC(=O)OCc2cccnc2)cc1 + CC(CO)NC(=O)c1cc(-c2ccc(Cl)cc2)nn(-c2cnn(C)c2)c1=O
1.96 µM: IC50 (second compound 0.1 µM)
active: viability, T/C [6] 6.28% | viability, T/C [12] 4.37% | viability, T/C [18] 4.21% | viability, T/C [24] 1.77% | viability, T/C [30] 0.88%
inactive: viability, T/C [1] 100% | viability, T/C [2] 101% | viability, T/C [3] 88.2% | viability, T/C [4] 60.9% | viability, T/C [5] 41.8% | viability, T/C [7] 87.6% | viability, T/C [8] 97.7% | viability, T/C [9] 80.6% | viability, T/C [10] 53.2% | viability, T/C [11] 31.8% | viability, T/C [13] 88.2% | viability, T/C [14] 94.8% | viability, T/C [15] 92.1% | viability, T/C [16] 47.4% | viability, T/C [17] 28.8% | viability, T/C [19] 83.7% | viability, T/C [20] 92.4% | viability, T/C [21] 79% | viability, T/C [22] 44.6% | viability, T/C [23] 24.2% | viability, T/C [25] 70.9% | viability, T/C [26] 72.8% | viability, T/C [27] 55.9% | viability, T/C [28] 40.5% | viability, T/C [29] 25.1%
1.35 µM: IC50 (second compound 0.316 µM)
1.18 µM: IC50 (second compound 1 µM)
0.572 µM: IC50 (second compound 10 µM)
0.987 µM: IC50 (second compound 3.16 µM)

O=C(c1cc(Cc2n[nH]c(=O)c3ccccc23)ccc1F)N1CCN(C(=O)C2CC2)CC1 + CC(CO)NC(=O)c1cc(-c2ccc(Cl)cc2)nn(-c2cnn(C)c2)c1=O
inactive: viability, T/C [1] 92.9% | viability, T/C [2] 95.3% | viability, T/C [3] 89.2% | viability, T/C [4] 76.7% | viability, T/C [5] 66.8% | viability, T/C [6] 62.2% | viability, T/C [7] 108% | viability, T/C [8] 99.6% | viability, T/C [9] 103% | viability, T/C [10] 82.3% | viability, T/C [11] 73.3% | viability, T/C [12] 70.4% | viability, T/C [13] 99.8% | viability, T/C [14] 104% | viability, T/C [15] 99.2% | viability, T/C [16] 72.3% | viability, T/C [17] 76% | viability, T/C [18] 67.9% | viability, T/C [19] 90.6% | viability, T/C [20] 96.7% | viability, T/C [21] 83.5% | viability, T/C [22] 78.3% | viability, T/C [23] 63.5% | viability, T/C [24] 59.2% | viability, T/C [25] 74.5% | viability, T/C [26] 72.7% | viability, T/C [27] 74% | viability, T/C [28] 71.9% | viability, T/C [29] 65.8% | viability, T/C [30] 69.7%
> 10 µM: IC50 (second compound 0.1 µM) | IC50 (second compound 0.316 µM) | IC50 (second compound 1 µM) | IC50 (second compound 3.16 µM) | IC50 (second compound 10 µM)
